According to patent US8987200B2, “Polycationic calcium modulator peptides for the treatment of hyperparathyroidism and hypercalcemic disorders” (KAI Pharmaceuticals, Inc., priority 2006, dated 2015):
No end group written: not given here.

What was measured:
[1] = rat, plasma
[2] = In vitro activity of free-thiol calcium modulating peptide compared with KAI-1455; conditions: tested in vitro, relative to KAI-1455
anesthetized rats = assay: 3 hour infusion study of KAI-1633 in anesthetized rats, with steady state plasma concentration by ELISA (Example 14); assay type: in vivo, rat; conditions: 9 mg/kg iv infusion for 3 hours
Description: The study was designed to determine the contribution of the disulfide bond and/or cysteine residue on the calcium modulator peptide to the reductions in total calcium and plasma PTH.
Control animals (n=4) were infused with saline.

CC[C@H](C)[C@H](NC(=O)[C@@H]1CCCN1C(=O)[C@H](C)NC(=O)[C@H](CC(=O)O)NC(=O)[C@H](Cc1c[nH]cn1)NC(=O)[C@@H](N)CSSC[C@H](N)C(=O)N[C@@H](Cc1ccc(O)cc1)C(=O)NCC(=O)N[C@@H](CCCNC(=N)N)C(=O)N[C@@H](CCCCN)C(=O)N[C@@H](CCCCN)C(=O)N[C@@H](CCCNC(=N)N)C(=O)N[C@@H](CCCNC(=N)N)C(=O)N[C@@H](CCC(N)=O)C(=O)N[C@@H](CCCNC(=N)N)C(=O)N[C@@H](CCCNC(=N)N)C(=O)N[C@@H](CCCNC(=N)N)C(=O)O)C(=O)NCC(=O)N[C@@H](Cc1ccc(O)cc1)C(=O)N[C@@H](CC(=O)O)C(=O)O [KP-9706]
half-life [1]: ~5 min

CC(C)C[C@H](NC(=O)[C@H](CO)NC(=O)CNC(=O)[C@H](CC(C)C)NC(=O)[C@H](CCC(=O)O)NC(=O)[C@H](Cc1ccc(O)cc1)NC(=O)[C@H](CO)NC(=O)[C@H](CC(N)=O)NC(=O)[C@H](Cc1ccccc1)NC(=O)[C@H](CO)NC(=O)[C@@H](N)CSSC[C@H](N)C(=O)N[C@@H](Cc1ccc(O)cc1)C(=O)NCC(=O)N[C@@H](CCCNC(=N)N)C(=O)N[C@@H](CCCCN)C(=O)N[C@@H](CCCCN)C(=O)N[C@@H](CCCNC(=N)N)C(=O)N[C@@H](CCCNC(=N)N)C(=O)N[C@@H](CCC(N)=O)C(=O)N[C@@H](CCCNC(=N)N)C(=O)N[C@@H](CCCNC(=N)N)C(=O)N[C@@H](CCCNC(=N)N)C(=O)O)C(=O)O [KP-9803]
half-life [1]: ~10 min

Ac-CYGRKKRRQRRR-NH2 [SEQ ID NO:5, capped TAT-derived peptide having an N-terminal cysteine residue containing a free thiol]
Activity in vitro [2]: comparable to KAI-1455

EAVSLKPTGGYGRKKRRQRRR-NH2 [KAI-1633]
Plasma PTH levels (anesthetized rats): did not show a reduction | Total calcium (anesthetized rats): did not show a reduction
